Experimental data from US20050143453A1, “Selective preventing and therapeutic agents for progressive lesion after organic damage” (priority 2000, published 2005).
Like-named read-outs stand apart in the source and are kept apart here.

Legend:
[1] = tested on: kidney of chronic puromycin nephrosis rat; experiment: Puromycin chronic nephrosis model in rat (CPN, Test Example 4); type: in vivo; parameters: key to Suppressive Effect to Glomerular Lesion / Suppressive Effect to Lesion of Tubulointerstitial Tissue: ∘: available; Δ: somewhat available; x: not available
Method: Evaluation Using Puromycin Chronic Nephrosis Model in Rat
Male SD rat of 8 weeks age of about 250 g was used and […] of puromycin were intravenously administered once according to a method of Diamond, et al. (J. R. Diamond, I. Pesek, S. Ruggeri, M. J. Karnovsky: Essential fatty acid deficiency during acute puromycin nephrosis ameliorates late renal injury. Am. J. Physiol, 257: F798˜F807, 1989). There was induced a chronic puromycin nephrosis rat where albuminuria increased from about tenth to twelfth week. After eighth week from administration of puromycin, each of compound (9-1) and compound (6-1) was subcutaneously injected at the dose of 30 mg/kg/day everyday until the 22nd week.
As a functional evaluation of kidney, albumin in urine was measured every week using a kit for the measurement of albumin. On the 22nd week, the rat was killed and anatomized to observe functional and morphological changes of kidney.

[2] = tested on: induction of effector macrophage by contact of human PBMC with lipopolysaccharide; experiment: SPFC production by LPS stimulation (Test Example 1); type: cell-based
Method: A suppressive effect of the test compound to effector macrophage induction was investigated in vitro by an induction and production system of spontaneous plaque-forming cell (SPEC) mentioned in M. Ishibashi, S. Jiang, Y. Kokado, S. Takahara, T. Sonoda: Immunopharmacologic effects of immunosuppressive agents explored by a new effector generation assay. Transplant Proc., 21: 1854-1858, 1989.
Heparin-added peripheral blood (40 ml) was collected from a healthy person and the same amount of EDTA-added physiological saline was added. PBMC were obtained by a specific gravity centrifugal method using Ficoll-Hypaque (manufactured by Pharmacia Fine Chemicals). Self-plasma was added thereto and allowed to stand at 37° C. for 10 minutes and platelets were removed by a low-speed centrifugal separation. RPMI 1640 liquid containing 15 μg/ml of gentamicin and 2 mM L-glutamine was used for washing the PBMC. Concentration of the PBMC was adjusted to 2×10^6 cells/ml using the same liquid.
Each 200 μl of a solution containing 2×10^6 PBMC/ml prepared in the step 1 were added to each well of a micro test plate, lipopolysaccharide (hereinafter, abbreviated as LPS) was diluted with the RPMI 1640 liquid to make the final concentration 80 μg/ml and the said LPS solution was added to each well of the 200 μl-micro test plate. Further, each 50 μl of human serum of type AB were added so as to make the concentration 10% by weight. Two such micro test plates were prepared.
After that, to the above two micro test plates was added a solution where the test compound was diluted with 1% by weight of DMSO so as to make the concentration of the test compound 1 μM. Similarly were prepared each two micro test plates where the final concentrations of the test compound were 0.1 μM, 0.01 μM and 0.001 μM.
The culture liquid prepared as such was incubated for 6 days at 37° C. in 5% CO2.
The effector macrophage induced after the incubation was all recovered using a rubber-policeman (spatula made of rubber). A Hanks solution containing 5 μg/ml of gentamicin was used for washing and, using the said solution, there was prepared a solution where the concentration of the induced effector macrophage was 2×10^6 per ml.
With regard to autologous erythrocytes, those which were preserved at 4° C. in a phosphate physiological saline (hereinafter, abbreviated as PBS) to which 0.1% by weight of AB serum and autologous erythrocytes obtained from PBMC separation were used were used. The preserved autologous erythrocytes were washed for three times with a Hanks solution to which no serum was added and made into a solution of 4% by weight concentration using the said Hanks solution. Poly-L-lysine was added to a Terasaki plate and washed with PBS every 20 minutes at 37° C., the above-mentioned autologous erythrocyte solution was added thereto immediately, the mixture was allowed to stand at 37° C. for 30 minutes and the erythrocytes which were not adhered to the plate were removed to prepare a Terasaki plate to which self-erythrocytes in a monolayer were adhered.
A Hanks solution (4 μl) was added to the said Terasaki plate, 4 μl of a solution containing the induced effector macrophage obtained in the step 3 were added thereto and the mixture was allowed to stand at 37° C. for 2 hours. After completion of the reaction, it was fixed by formalin. Numbers of the produced SPFC which were adhered or phagocytized were measured.
A mean SPFC production number was calculated from the measured values of SPFC production when the concentration of the test compound was the same. SPFC production number per 1×10^6 of the induced effector macrophage was calculated and, from the recovered induced effector macrophage numbers, total SPFC production amount (S2) was calculated.
As a control, no test compound was added and the same operation as above was carried out to calculate the total SPFC production amount (S1). […]

[3] = Acute and chronic toxicity tests (Test Example 5); type: in vivo; conditions: subcutaneously 30 mg/kg/day for ten days
Method: Acute and Chronic Toxicity Tests
Toxicity test of benzyl 2-chloro-5-oxotetrahydrofuran-2-carboxylate represented by the formula (6-1) manufactured in Example 8 and ethyl 2-ketoglutarate represented by the formula (9-1) was carried out.

[4] = tested on: induction of effector macrophage by contact of human PBMC with mitomycin-treated human PBMC (allo-MLC); experiment: SPFC production by allo-MLC stimulation (Test Example 2); type: cell-based; conditions: for functional group (selective suppression of SPFC production by allo-MLC or LPS stimulation): summary of Table 1
[5] = tested on: obstruction-released kidney of male SD rats; experiment: Obstruction release model after complete obstruction of unilateral ureter for 14 days (UUO/Release, Test Example 3); type: in vivo, rat; parameters: key to Suppressive Effect to Glomerular Lesion / Suppressive Effect to Lesion of Tubulointerstitial Tissue: ∘: available; Δ: somewhat available; x: not available; conditions: for Suppressive Effect to Glomerular Lesion / Suppressive Effect to Lesion of Tubulointerstitial Tissue: Experimental Model of Rat: UUO/Release
Method: Obstruction Release Model after Complete Obstruction of Unilateral Ureter for 14 Days
Experimental models were prepared by a method devised and established by Ishibashi (Michio Ishibashi, et al.: The Japanese Journal of Nephrology, 42: 248, 2000) using male SD rats of 8-9 weeks age and about 280 g. Thus, the rat was laparotomized under anesthetization with ether and ureter was ligated with 7-0 Nylon at the height of the margin of lower pole of left kidney to close the abdomen. On the 14th day after obstruction, the obstruction was released and urinary passage was reconstructed using a cuff. Thus, after 14 days, the part of ligated obstructed ureter was resected, a polyethylene tube of 25 gages (manufactured by Nippon Sherwood) was used as a cuff and inserted into and retained at the lumen from the cut end of the lower normal ureter, then the cuff was also retained in the expanded upper ureter and each of them was ligated and fixed by 7-0 Nylon to reconstruct the urinary passage. At the same time, the right kidney at the opposite side was excised. After the release of the obstruction, body weight was measured, blood was collected on the 2nd day, 5th day and 7th day from the release to measure serum creatinine, then the rat was sacrificed under anesthetization and the left obstruction-released kidney was excised. With regard to the excised kidney, there were carried out measurement of weight of the kidney and pathological test for the kidney.
An in vivo biological test was carried out for the γ-lactone derivatives according to the present invention using the above models. With regard to the test compound, bulk powder of the test compound was dissolved in an aseptic physiological saline together with gum arabic and the final concentration of gum arabic was 5%(vol/vol). The concentration of the test compound 30 mg/ml was suspended in 5% gum arabic-saline solution. The preparation was subcutaneously injected at the dose of 30 mg/kg every day throughout the experiment. With regard to the test compound, there were used (9-1), (4-2) and (7-3) as the compounds of group I suppressing the SPFC production by allo-MLC stimulation, i.e., the compounds which selectively suppress the induction of effector macrophage in the presence of allo-MLC while there was used (3-2) as the compound of group II suppressing the SPFC production by LPS stimulation, i.e., the compounds which selectively suppress the induction of effector macrophage in the presence of LPS.
In the Table, “functional classification” of the compound means the above group I, group II and group III. “Compound” means the compound bearing each of the above-mentioned compound numbers. The fact whether glomerular lesion was suppressed was judged by the ameriolation of the lesions such as thickness of wall of Bowman's capsule, hyperplasia of mesangial cells and glomerular sclerosis. The fact whether lesion of tubulointerstitial tissue was suppressed was judged by the ameriolation of the lesions such as thickness of basement membrane of tubules, cellular infiltration and fibrosis of interstitial tissue. In the table, “control” is the result when the same test as above was carried out using 5% gum arabic only which is a solvent.
In order to further confirm whether the preventive and therapeutic effect of the γ-lactone derivatives of the present invention to the target cell damage is selective, (7-3) of the group I and (6-1) of the group II were used as test compounds and they were subcutaneously injected at the dose of 30 mg/kg every day and compared with the control group. With regard to the control group, only 5% gum arabic which is a solvent was used and the same test as above was carried out.

[6] = tested on: lesion of tubulointerstitial tissue / glomerulus; experiment: Suppression of renal lesion in vivo by active metabolites (model not stated)
[7] = 30 mg/kg/day subcutaneously from 8th to 22nd week after puromycin
[8] = 144 h, human PBMC with LPS 80 μg/ml, incubated 6 days, Table 1, read-out: SPFC Production Inhibiting Concentration by LPS Stimulation (μM: IC50)
[9] = Homo sapiens, Table 5, read-out: Inhibiting Concentration for SPEC Production by LPS Stimulation (μM: IC50)
[10] = 144 h, human PBMC with mitomycin-treated human PBMC, incubated 6 days, Table 1, read-out: SPFC Production Inhibiting Concentration by all-MLC Stimulation (μM: IC50)
[11] = Homo sapiens, Table 5, read-out: Inhibiting Concentration for SPEC Production by allo-MLC Stimulation (μM: IC50)
[12] = 30 mg/kg subcutaneously every day, Table 2

Compound | suppression of glomerular lesion ([1]; 30 mg/kg/day subcutaneously) | Rate of Cases where Glomerular Lesion was Suppressed [1, 7] | Rate of Cases where Lesion of Tubulointerstitial Tissue was Suppressed [1, 7] | Suppressive Effect to Glomerular Lesion ([1]; Experimental Model of Rat: CPN) | Suppressive Effect to Lesion of Tubulointerstitial Tissue ([1]; Experimental Model of Rat: CPN) | IC50 [2, 8] | IC50 [2, 9] | toxicity finding [3] | IC50 [4, 10] | IC50 [4, 11] | functional group (selective suppression of SPFC production by allo-MLC or LPS stimulation) [4] | Suppressive Effect to Glomerular Lesion [5] | Suppressive Effect to Lesion of Tubulointerstitial Tissue [5] | selectivity of the suppressive effect on renal lesions ([5]; 30 mg/kg subcutaneously every day) | Rate of Cases where Glomerular Lesion was Suppressed [5, 12] | Rate of Cases where tubulointerstitial Lesion was Suppressed [5, 12] | Serum Creatinine level (mg/dl) on the 7th Day from Release of Obstruction [5, 12] | Weight of Kidney (g) on the 7th Day from Release of Obstruction [5, 12] | suppression of SPFC production by LPS stimulation [2] | suppression of lesion of glomerulus in vivo [6]
O=C1CCC(Cl)(C(=O)OCc2ccccc2)O1 (stereo not drawn) [(6-1), Benzyl 2-chloro-5-oxotetrahydrofuran-2-carboxylate] | well suppressed | 67% (4/6) | 17% (1/6) | ∘ | x | 0.001 µM | 0.001 µM | an increase in weights of the liver and the spleen in a light degree | > 1 µM | > 1 µM | group II | – | – | – | – | – | – | – | – | –
O=C1CCC(F)(C(=O)OCc2ccccc2)O1 (stereo not drawn) [(6-2), Benzyl 2-fluoro-5-oxotetrahydrofuran-2-carboxylate] | – | – | – | – | – | 0.001 µM | 0.001 µM | – | – | – | group II | ∘ | x | – | – | – | – | – | – | –
O=C1OC(Cl)(C(=O)OCc2ccccc2)c2ccccc21 (stereo not drawn) [(7-3), Benzyl 1-chloro-3-oxo-1,3-dihydro-isobenzofuran-1-carboxylate] | – | – | – | – | – | > 1 µM | 0.01 µM | – | 0.01 µM | 0.01 µM | group I | x | ∘ | selective suppressive effect | 25% (1/4) | 100% (4/4) | 2.0 ± 0.6 mg/dL | 2.72 ± 0.47 g | – | –
benzyl 2-ketoglutarate [(9-2)] | – | – | – | – | – | – | – | – | – | – | – | – | – | – | – | – | – | – | selectively suppresses | able to suppress
